Assay results as given in patent US9724328B2, “Methods and compositions for treatment of lipid storage disorders” (NEUROTROPE BIOSCIENCE, priority 2014, dated 2017).

Columns and labels:
NPC24-SV cells [1] = experiment: Cholesterol accumulation by filipin staining in NPC24-SV cells; assay type: cell-based, Human
Description: (§1) Cells are plated in 6-well dishes and treated with the appropriate compound (dissolved in DMSO) at the indicated dose daily for 48 hrs. Control cells receive DMSO. After 48 hrs cells are transferred to cover slips with fresh compound and grown for another 24 hrs. Cover slips are collected and processed for microscopy.
(§2) Filipin: For detection of unesterified cholesterol in lysosomes, cells were fixed in formalin for 30 min at 4° C., washed 2×, 5 min in 0.9% NaCl, incubated for 45 min with 0.01% filipin in PBS at room temperature, and then washed 2×, 5 min. Fluorescence was observed using a Nikon Eclipse fluorescence microscope (Nikon, Melville, N.Y.) equipped with a CCD camera. Fluorescence signals were quantified using Nikon's imaging and quantitation software package NIS Elements, v. 3.22.

C57Bl6 NPC1 mice = experiment: Survival of C57Bl6 NPC1 mice dosed IP twice weekly; assay type: in vivo, mouse
Description: A total of […] C57Bl6 NPC1 mice, mixed sex, were used. These mice were separated into 5 groups of 5 mice each, Groups 1-5.
Bryostatin 1 (purity≧95%) from Aphios (Woburn, Mass.), 1 vial 2 mg, was solubilized in a 5% DMSO, 20% Solutol and 75% Saline solution and used as the study drug. The negative (vehicle) control is a 5% DMSO, 20% Solutol and 75% Saline solution. DCP-LA from Sigma-Aldrich: 5 mg oil/vial was used as an additional in vitro active compound. Bryostatin 1 (API) was stored at or below −20° C. and formulated as needed. The formulated bryostatin 1 was stored at 2° to 8° C. for less than 24 hour(s). The DCP-LA and the vehicle controls were stored at 2°-8° C.
The stock solution of bryostatin 1 is 10 mg/ml in DMSO, which is kept at −80° C. in aliquots. The dosing formulation is made by diluting the stock first in DMSO, then adding solutol, and lastly saline—with more insoluble compounds, adding the drug stock to complete vehicle will cause the compound to come out of solution, so we make formulations stepwise. The dosing volume is always 100 μl. Mice weigh approximately 20 g.
The mice are dosed twice weekly (Mon and Thu) starting at 30 days for up to 150 days.
C57 NPC1 mice have an average life span of ˜110 days. By Day 70 mice reach an average weight of 18-22 grams. Untreated NPC1 mice develop ataxia and will begin to lose weight at ˜70 days (see FIG. 17). Ataxia (or lack of voluntary muscle control) is a clinical feature of NPC1 mice, which may be described as shaking. Treatment will be initiated at ˜30 days of age, average NPC mouse weight of 10 g. If the drug is efficacious injections will continue past day 70-80. An extension of life of about 20-30% will mean that animals will need to be treated up to day 130-150.

NPC3-SV cells = experiment: Stored cholesterol by filipin staining in NPC3-SV cells; assay type: cell-based, Human; conditions: for clearance of cholesterol (stored cholesterol levels): 48 h, FIG. 8
Description: as §1, §2

NPC24-SV cells [2] = experiment: Glycosphingolipid accumulation by VTB staining in NPC24-SV cells; assay type: cell-based, Human; conditions: 0.1 nM
NPC cells = conditions: earlier study [5]; cited from earlier work
human NPC1 3123 cells = experiment: Sphingolipid transport, BODIPY-LacCer staining; assay type: cell-based; conditions: 48 hours
Excerpt: For filipin staining in transfected cells, cells were transfected with PKC or Rab9 using Fugene 6 according to the manufacturer's recommendations. After 48 hrs, cells were stained with filipin as we have previously described. Cells were mounted onto slides using Fluoromount-G (SouthernBiotech, Birmingham, Ala.) and analyzed on a Nikon Eclipse microscope fitted with a charge-coupled-device camera (Nikon, Melville, N.Y.). Images were acquired with MetaVue software and then deconvoluted using AutoDeblur software from AutoQuant Imaging, Inc (Troy, N.Y.). For quantitation of filipin fluorescence, cells were seeded at 3×10^5 cells/well in 6-well dishes and allowed to settle overnight, after which the medium was replaced with medium containing 10% lipoprotein deficient serum (LPDS) for 4 days. Cells were incubated with oleic/linoleic acids for 48 hours, DCPLA/DHA for 24 hrs, or diazoxide for 72 hrs before fixing and staining with filipin as we have previously described. Images were acquired using the same exposure time for all samples. Fluorescence intensity was determined using the integrated intensity function of MetaVue software; at least 150 cells were quantitated for each sample and each experiment was repeated 3 times. For analysis of sphingolipid transport, cells were incubated with oleic/linoleic acids, DCP-LA, or PMA for 48 hours before BODIPY-LacCer staining was performed as previously described.

[3] = tested on: human NPC1 fibroblasts (NPC1 3123); experiment: Soluble vimentin levels by Western blot after fatty acid treatment; assay type: cell-based; conditions: for soluble vimentin in NPC1 cells: discussion statement, FIG. 5, concentration not given; for levels of soluble vimentin in cell lysates: human NPC1 fibroblasts, 50 μg/ml, 48 hours (FIG. 5 legend: 24 hrs)
Description: The human wild-type fibroblast (GM05387), NPClo fibroblast (GM09341), and NPC1 fibroblast (GM03123) cell lines were obtained from Coriell Cell Repositories (Camden, N.J.). The M12 Chinese hamster ovary (CHO) cell line and its wild-type parental line were obtained and cultured. Fibroblast cell lines were cultured in DMEM, and CHO cells were cultured in DMEM/F12 (50:50) medium, supplemented with 10% FBS, 2 mM L-glutamine, and 50 μg/ml gentamicin in a humidified incubator at 37° C. with 5% CO2.
Transfected cells were harvested with PBS containing 2 mM EDTA at 2 days post-transfection. Soluble and insoluble cell fractions were prepared as described previously. Briefly, to obtain the soluble/cytoplasmic fraction, cells were incubated on ice for 30 min in cold “phospho” buffer [150 mM NaCl, 20 mM NaF, 100 μM Na3VO4, 20 mM Hepes, pH 7.5), 1% (v/v) Igepal, 10% (v/v) glycerol, and 1 μL/20 mg tissue of protease inhibitor cocktail] and then centrifuged for 20 min at 14,000 rpm at 4° C.; the clear supernatant was frozen in aliquots at a concentration of 1 μg/μl. The pellet (insoluble fraction) was washed 3 times in ice-cold PBS containing 2 mM EDTA and then resuspended in a volume of “Triton” buffer [PBS, 1% (w/v) SDS, and 0.1% (v/v) Triton X-100] equal to the “phospho” buffer. This solution was boiled for 10 min and sonicated until the solution became clear. The protein concentration of this fraction was adjusted to 1 μg/μl according to the protein concentrations determined for the soluble/cytoplasmic fraction. Protein concentrations were determined using the fluorescamine method as we have described. 4-12% Bis-Tris precast gel (Invitrogen, Carlsbad, Calif.) and then transferred onto a Protran membrane using an XCell II apparatus (Invitrogen, Carlsbad, Calif.) according to the manufacturer's instructions. Blots were processed as described previously.

NPC3SV cells = assay type: cell-based, Human; conditions: FIG. 12, concentration not given
M12 NPC1 CHO cells = experiment: Cholesterol esterification assay ([3H] oleate); assay type: cell-based, Chinese hamster; conditions: 50 μg/ml fatty acid for 2 days followed by expression of PKC ε
Description: The preparation of [^3H] oleate substrate and esterification assays were performed as previously described. Cells were treated with 50 μg/ml fatty acid for 2 days and then transfected with PKE α or PKC ε for 24 hrs before esterification assays. All values were generated in triplicate and normalized for total cell protein.

CCC/C=C/C=C/C(=O)O[C@H]1/C(=C/C(=O)OC)C[C@H]2C[C@H]([C@@H](C)O)OC(=O)C[C@H](O)C[C@@H]3C[C@H](OC(C)=O)C(C)(C)[C@](O)(C[C@@H]4C/C(=C/C(=O)OC)C[C@H](/C=C/C(C)(C)[C@]1(O)O2)O4)O3 [bryostatin 1]
effect in cholesterol assay (NPC24-SV cells [1]; 0.1 nM, NPC24-SV cells): no effect
cholesterol clearance (NPC24-SV cells [1]; 10 nM, NPC24-SV cells, FIG. 11): able to effect cholesterol clearance
concentration showing a positive therapeutic effect (NPC24-SV cells [1]; human NPC1 disease cells, summary of Example 2): 10 to 100 nM
age that mice lived past (C57Bl6 NPC1 mice; 10 μg/kg IP twice weekly from 30 days of age): > 100 days
age that mice lived past (C57Bl6 NPC1 mice; 20 μg/kg IP twice weekly from 30 days of age): > 100 days
age that mice lived past (C57Bl6 NPC1 mice; 30 μg/kg IP twice weekly from 30 days of age): > 100 days
clearance of cholesterol (stored cholesterol levels) (NPC3-SV cells): able to induce clearance of cholesterol
stored cholesterol levels (NPC3-SV cells; 72 h, FIG. 9): activity in the nanomolar concentration range
effect in sphingolipid assay (NPC24-SV cells [2]): no effect

CCCCCCCCCCCCCC(=O)O[C@@H]1[C@@H](C)[C@@]2(O)[C@@H](C=C(CO)C[C@]3(O)C(=O)C(C)=C[C@@H]23)[C@@H]2C(C)(C)[C@]12OC(C)=O [PMA, phorbol-12-myristate-13-acetate]
NPC lipid storage phenotype (NPC cells): ameliorated the NPC lipid storage phenotype
levels of soluble vimentin (NPC cells): increased levels of soluble vimentin
BODIPY-LacCer transport to the trans-Golgi network (human NPC1 3123 cells; 100 nM): the lipid can be seen in the TGN

CCCCCC1CC1CC1CC1CCCCCCCC(=O)O (centres unmarked) [DCP-LA, 8-[2-(2-pentyl-cyclopropylmethyl)-cyclopropyl]-octanoic acid]
filipin accumulation (NPC24-SV cells [1]; NPC24-SV cells, FIG. 11, concentration not given): decrease filipin accumulation
soluble vimentin in NPC1 cells [3]: increase of soluble vimentin
clearance of cholesterol (stored cholesterol levels) (NPC3-SV cells): able to induce clearance of cholesterol
BODIPY-LacCer transport to the trans-Golgi network (human NPC1 3123 cells; 20 μM): the lipid can be seen in the TGN
ganglioside transport block (NPC3SV cells): release the ganglioside transport block

CCCCCCCC/C=C\CCCCCCCC(=O)O [oleic acid, cis-9-octadecenoic acid]
cholesterol esterification levels over untreated cells (M12 NPC1 CHO cells): ~3.5 fold
soluble vimentin in NPC1 cells [3]: increase of soluble vimentin
levels of soluble vimentin in cell lysates [3]: significantly increases the amount of soluble vimentin
BODIPY-LacCer transport to the trans-Golgi network (human NPC1 3123 cells; 2 μg/ml): the lipid can be seen in the TGN

CC1=NS(=O)(=O)c2cc(Cl)ccc2N1 [diazoxide]
clearance of cholesterol (stored cholesterol levels) (NPC3-SV cells): able to induce clearance of cholesterol

CCCCC/C=C\C/C=C\CCCCCCCC(=O)O [linoleic acid]
cholesterol esterification levels over untreated cells (M12 NPC1 CHO cells): ~3.5 fold
soluble vimentin in NPC1 cells [3]: increase of soluble vimentin
levels of soluble vimentin in cell lysates [3]: significantly increases the amount of soluble vimentin
BODIPY-LacCer transport to the trans-Golgi network (human NPC1 3123 cells; 2 μg/ml): the lipid can be seen in the TGN
